We go through eleven compounds from patent publication US4649153A, “5,6-Dihydro-4H-cyclopenta(b)thiophene-6-carboxylic acids, preparation processes and medicines containing them” (Lipha, Lyonnaise Industrielle Pharmaceutique, priority 1984, dated 1987).

Entries after “also recorded” stand apart in the source; their conditions may differ. Like-named read-outs stand apart in the source and are kept apart here.

For one series, the system named is UV erythema. Description: Protection from UV erythema (Winter et al.), early inflammation. It is filed as in vivo, guinea pigs. Conditions: Cavia porcellus, read-out: Protection from UV ED 50. As for the experimental part: White guinea pigs having their backs freshly depilated were radiated individually by exposure to the radiation of a UV lamp placed 25 cm above the animal's back for 1 min 30 sec. The zone to be radiated was delimited by a covering pierced with circular holes wrapping each animal. The erythema was visually marked 2 hours after exposure to radiation. The guinea pigs were treated orally with the test products 1 hour after exposure to UV.

In a further series the test system is carrageenan edema. Put plainly: Carrageenan edema test (Winter et al.), rat back paw, anti-inflammatory activity. It is filed as in vivo, rats (male). Conditions: for ED30: Rattus norvegicus, read-out: Carrageenan edema ED 30. As for the experimental part:
Edema of a back paw was caused in male rats by subplantar injection of a 1% suspension of carrageenan in apyrogenic physiological solute. Measurement of the edema by plethysmography occurred 3 hours later. The products studied were administered orally 1 hour before the carrageenan injection. The protection conferred by the treatment was determined by calculation of ED 30 (dose moderating the edema 30% in relation to untreated animals).
A general note: In the carrageenan paw model, swelling and tenderness develop within hours.

Series [1] can be described thus: Acute oral toxicity (LD50), mortality recorded 2 weeks later. Conditions: mouse, in vivo, Table III, Swiss mice. As for the experimental part: Lethal doses 50 (LD50) were determined by oral administration in Swiss mice. Mortality was recorded 2 weeks later.
Setting [2] is: Table II, oral, 1 hour after UV exposure, guinea pigs, dose reducing erythema 50%.
[3] abbreviates: Table II, oral, 1 hour before carrageenan, rats, dose moderating edema 30%.
[4] abbreviates: Table I, oral, 1 hour after UV exposure, guinea pigs, erythema marked 2 hours after exposure, dose reducing erythema 50%.
Where [5] appears, read: Table I, oral, 1 hour before carrageenan, rats, edema measured 3 hours later, dose moderating edema 30%.

In the case of `O=C(c1ccccc1)c1cc2c(s1)CCC2C(=O)O` (stereo not shown) [2-Benzoyl-5,6-dihydro-4H cyclopenta[b]thiophene-4-carboxylic, reference compound], the ED50 with UV erythema (setting [2]) was over 50 mg/kg. Moreover, the ED30 with carrageenan edema (setting [3]) is over 30 mg/kg.

For the compound `Cc1sc2c(c1C(=O)c1ccccc1)C(C(=O)O)CC2` (stereo not shown) [3-benzoyl-2-methyl-5,6-dihydro-4H-cyclopenta[b]thiophene-4-carboxylic acid, reference compound], the ED50 in the series on UV erythema (setting [2]) was over 50 mg/kg. In addition, the ED30 in the series with carrageenan edema (setting [3]) is over 30 mg/kg.

For `Cc1sc2c(c1C(=O)c1ccc(F)cc1)CCC2C(=O)O` (stereo not shown) [Example 21, 3-(4-Fluorobenzoyl)-2-methyl-5,6-dihydro-4H-cyclopenta[b]thiophene-6-carboxylic acid], the ED50 in the series on UV erythema (setting [4]) is 0.4 mg/kg. Moreover, the ED30 in the series on carrageenan edema (setting [5]) is 2.4 mg/kg.

Take `CC(C)Cc1sc2c(c1C(=O)c1ccccc1)C(C(=O)O)CC2` (stereo not shown) [3-Benzoyl-2-isobutyl-5,6-dihydro-4Hcyclopenta[b]thio-phene-4-carboxylic acid, reference compound]: the ED50 in the series on UV erythema (setting [2]) was over 50 mg/kg. For the same compound, the ED30 in the series with carrageenan edema (setting [3]) was over 30 mg/kg.

In the case of `CCc1sc2c(c1C(=O)c1ccccc1)CCC2C(=O)O` (stereo not shown) [Example 38, 3-Benzoyl-2-ethyl-5,6-dihydro-4H-cyclopenta[b]thiophene-6-carboxylic acid], the ED50 in the series with UV erythema (setting [4]) was found to be 2 mg/kg. Moreover, the ED30 with carrageenan edema (setting [5]) was determined as 6 mg/kg.

As usually defined, the LD50 is the dose expected to kill half of the subjects tested. Take `Cc1sc2c(c1C(=O)c1ccccc1)CCC2C(=O)O` (stereo not shown) [Example 7, 3-Benzoyl-2-methyl-5,6-dihydro-4H-cyclopenta[b]thiophene-6-carboxylic acid]: the ED50 in the series with UV erythema (setting [4]) and in the series with UV erythema (setting [2]) was 0.4 mg/kg in each case. The LD50 at 336 h in series [1] was found to be 275 mg/kg. Also, the ED30 in the series with carrageenan edema (setting [5]) is 0.7 mg/kg. For the same compound, the “Carrageenan edema ED 30” value with carrageenan edema (setting [3]) stood at 0.7 mg/kg. Further, the “activity compared with Indomethacin and with isomeric 4-carboxylic acids (in words)” value with carrageenan edema (carrageenan edema, UV protection and Randall and Selitto tests) is “greater than that of Indomethacin; also recorded: considerably greater than that of 5,6-dihydro-4H-cyclopenta[b]thiophene-4-carboxylic isomeric acids”.

Turning to `CC(C)Cc1cc2c(s1)CCC2C(=O)O` (stereo not shown) [2-Isobutyl-5,6-dihydro-4H cyclopenta[b]thiophene-4-carboxylic, reference compound], the ED50 in the series with UV erythema (setting [2]) was over 50 mg/kg. For the same compound, the ED30 in the series with carrageenan edema (setting [3]) was over 30 mg/kg.

Turning to `Cc1sc2c(c1C(=O)c1cccs1)CCC2C(=O)O` (stereo not shown) [Example 10, 2-Methyl 3-(2-thenoyl)-5,6-dihydro-4H-cyclopenta[b]thiophene-6-carboxylic acid], the ED50 in the series with UV erythema (setting [4]) amounted to 0.2 mg/kg. Besides, in series [1], the LD50 at 336 h amounted to 275 mg/kg. Moreover, in the series on carrageenan edema (setting [5]), the ED30 came to 3 mg/kg.

With `COc1ccc2c(c1)c(CC(=O)O)c(C)n2C(=O)c1ccc(Cl)cc1` [INDOMETHACIN, 1-(4-chlorobenzoyl)-5-methoxy-2-methyl-3-indolylacetic acid, reference compound], in the series on UV erythema (po), the ED50 came out at 4.5 mg/kg. The LD50 at 336 h in series [1] was found to be 25 mg/kg. The ED30 in the series on carrageenan edema (po) is 5 mg/kg.

Consider `CC(C)Cc1sc2c(c1C(=O)c1ccccc1)CCC2C(=O)O` (stereo not shown) [Example 32, 3-Benzoyl-2-isobutyl-5,6-dihydro-4H-cyclopenta[b]thiophene-6-carboxylic acid], for which the ED50 in the series on UV erythema (setting [4]) is over 50 mg/kg. Besides, the ED30 in the series on carrageenan edema (setting [5]) is over 50 mg/kg.

Consider `Cc1sc2c(c1C(=O)c1ccc(N(C)C)cc1)CCC2C(=O)O` (stereo not shown) [Example 27, 3-(4-Dimethylaminobenzoyl)-2-methyl-5,6-dihydro-4H-cyclopenta[b]thiophene-6-carboxylic acid], for which the ED50 with UV erythema (setting [4]) was determined as 0.6 mg/kg. The ED30 with carrageenan edema (setting [5]) amounted to 1.3 mg/kg.
